{"source": "patent US8106056B2", "about": "“Combination preparations comprising bifeprunox and a dopamine agonist” (Solvay Pharmaceuticals B.V., priority 2006, dated 2012)", "key": {"[1]": {"tested_on": "MPTP-treated common marmosets", "experiment": "Locomotor activity in MPTP-treated common marmosets (automated activity cages)", "format": "in vivo, common marmosets (Callithrix jacchus)", "experimental": "(§1) These animals were L-DOPA responsive and not test drug naive. They had not been experimentally primed for dyskinesia although some dyskinesia was present.\n(§2) Drug treatment: Bifeprunox mesylate was suspended in 10% sucrose solution and administered orally by gavage in a volume of 2.0 ml/kg. L-DOPA: L-3,4-Dihydroxyphenylalanine (L-dopa) methylester (Sigma Chemical Co, UK) was dissolved in 10% sucrose solution and administered orally by gavage in a volume of 2.0 ml/kg. Carbidopa: (Merck, Sharp and Dohme, UK) was administered orally as a suspension in 10% sucrose solution in a volume of 2.0 ml/kg. Domperidone: (2.0 mg/kg po, Sigma UK) was dissolved in 10% sucrose and administered 60 min prior to bifeprunox in a volume of 2.0 ml/kg, Bifeprunox (4 or 8 mg/kg po free base) or its vehicle (10% sucrose) was administered alone and in combination with L-DOPA (7.5 mg/kg po free base, given in combination with carbidopa, 12.5 mg/kg po) to MPTP-treated marmosets (n=6). Animals were treated with bifeprunox or its vehicle 90 min prior to administration of L-DOPA or its vehicle administration. Carbidopa was administered 30 minutes prior to administration of L-DOPA. Domperidone was administered 60 min prior to bifeprunox administration.\nBehavioral Studies: In all studies, animals were acclimatised to behavioral study cages for 1 hour prior to treatment. The animals were placed individually into activity cages (50×60×70 cm) fitted with a clear perspex door to allow clear visibility for observation. Each cage was equipped with 8 horizontally orientated infrared photocell emitters and their corresponding detectors arranged so as to permit maximum assessment of movement. Locomotor activity was assessed as the number of light beam interruptions caused by movement of the animals accumulated in 10-minute intervals for up to 7 hours. The animals were allowed a 60-minute acclimatisation period in the activity cages during which baseline activity was assessed, before drug administration. ‘On’ Threshold was defined as 3 times baseline activity in MPTP-treated marmosets. Hyperactivity was defined as 3 times normal activity in naive marmosets. ‘On’ time was the period of time in minutes that activity was above the ‘On’ Threshold. Animals were treated with bifeprunox, vehicle and/or L-DOPA. Following drug treatment, animals were assessed for locomotor activity and disability as described below for up to 6 h following drug administration. The animals used in the study were in the automated activity cages for no longer than 8 h on any study day, and were allowed at least 3 days recovery period between drug treatments to ensure appropriate animal welfare consideration. The locomotor activity, motor disability and presence of dyskinesia were assessed as follows:\nLocomotor Activity: In all studies the animals were acclimatised to behavioral study cages for 1 hour prior to bifeprunox treatment. Animals were then treated with appropriate drugs. Following treatment, animals were assessed for antiparkinsonian activity for up to 6 h using automated activity cages and by the rating of disability by an observer blinded to the treatment.\n(§3) Data and Statistical Analysis: Data are presented as median locomotor activity (counts/30 min) or disability score (score over 10 min/30 min) over the 7 hour period of the experiment, or as total locomotor activity (counts/420 min) or disability (total score over 420 min). Data were analysed by Kruskall Wallis ANOVA and post-hoc Man-Whitney test where appropriate. Analyses were corrected for multiple comparisons using the formula: Acceptable probability=α/number of comparisons where α=5% A separate group of animals from those used in the study were treated with vehicle and were used for statistical comparison."}, "[2]": {"tested_on": "MPTP-treated common marmosets", "experiment": "Disability rating in MPTP-treated common marmosets", "format": "in vivo, common marmosets (Callithrix jacchus)", "experimental": "as §1, §2\nDisability and dyskinesia scores: Disability and dyskinesia was assessed before, and during the last 10 minutes in every 30 min period after bifeprunox administration for up to 6 hours following drug treatment. The following disability rating scales were used:\nRating of disability: The disability of animals was scored as follows; alertness (normal 0, sleepy 2); reaction (normal 0, reduced 1, slow 2, absent 3); checking movements (present 0, reduced 1, absent 2); attention and eye movements (normal 0, abnormal 1); posture (normal 0, abnormal trunk+1, abnormal limbs+1, abnormal tail+1, or grossly abnormal 4); balance/co-ordination (normal 0, impaired 1, unstable 2, spontaneous falls 3); vocalisation (normal 0, reduced 1, absent 2); motility (normal 0, bradykinesia/hyperkinesia 1, akinesia/hyperkinesia 2). Sedation was noted if present.\nas §3"}, "[3]": {"target": "T1, serotonin 5-HT1A receptors (Homo sapiens, UniProt P08908)", "T1 sequence (P08908 1-422)": "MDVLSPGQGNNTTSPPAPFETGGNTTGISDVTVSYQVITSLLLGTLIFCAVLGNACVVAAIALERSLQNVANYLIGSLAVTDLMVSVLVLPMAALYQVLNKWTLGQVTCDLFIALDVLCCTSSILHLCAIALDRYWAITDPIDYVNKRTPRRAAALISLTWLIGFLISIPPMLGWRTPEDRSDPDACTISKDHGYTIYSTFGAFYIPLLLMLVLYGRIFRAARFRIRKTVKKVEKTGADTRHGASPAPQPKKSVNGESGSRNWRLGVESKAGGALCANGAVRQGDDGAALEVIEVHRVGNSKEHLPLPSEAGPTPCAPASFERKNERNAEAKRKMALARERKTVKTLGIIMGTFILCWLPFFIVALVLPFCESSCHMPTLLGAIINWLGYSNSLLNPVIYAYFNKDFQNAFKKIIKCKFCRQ", "settings": "cited from earlier work"}, "dopamine D2/3 receptors": {"tested_on": "dopamine D2/3 receptors", "settings": "cited from earlier work"}, "[4]": {"settings": "L-DOPA 7.5 mg/kg po plus carbidopa 12.5 mg/kg po 30 min prior"}, "[5]": {"settings": "bifeprunox 4 mg/kg po 90 min prior to L-DOPA 7.5 mg/kg po plus carbidopa 12.5 mg/kg po"}, "[6]": {"settings": "bifeprunox 4 mg/kg po alone, p<0.05, Mann Whitney"}, "[7]": {"settings": "bifeprunox 8 mg/kg po 90 min prior to L-DOPA 7.5 mg/kg po plus carbidopa 12.5 mg/kg po"}, "[8]": {"settings": "bifeprunox 8 mg/kg po alone, p<0.05, Mann Whitney"}}, "note": "Entries after “also recorded” stand apart in the source; their conditions may differ."}
{"smiles": "N[C@@H](Cc1ccc(O)c(O)c1)C(=O)O", "note": "[L-DOPA, L-3,4-Dihydroxyphenylalanine, reference compound]", "values": [{"measurement": "locomotor activity compared to vehicle administration", "setting": "[1]; [4]", "result": "increased"}, {"measurement": "median duration of activity (locomotor On-Time)", "setting": "[1]; [4]", "result": 180, "unit": "min/420 min"}, {"measurement": "Total locomotor activity and locomotor 'on-time' versus vehicle", "setting": "[1]; L-DOPA 7.5 mg/kg po plus carbidopa 12.5 mg/kg po, p<0.05, Mann Whitney", "result": "greater than vehicle-treated animals"}, {"measurement": "disability 'On-Time'", "setting": "[2]; [4]", "result": 120, "unit": "min/420 min"}, {"measurement": "time at which peak disability score was reached after administration (median)", "setting": "[2]; [4]", "result": 75, "unit": "min"}, {"measurement": "disability scores compared to vehicle administration", "setting": "[2]; L-DOPA 7.5 mg/kg po plus carbidopa 12.5 mg/kg po 30 min prior, p<0.05, Mann Whitney", "result": "decreased"}]}
{"smiles": "O=c1[nH]c2cccc(N3CCN(Cc4cccc(-c5ccccc5)c4)CC3)c2o1", "note": "[bifeprunox, 7-[4-([1,1′-biphenyl]-3-ylmethyl)-1-piperazinyl]-2(3H)-benzoxazolone]", "values": [{"measurement": "Locomotor activity compared to L-DOPA alone and bifeprunox (4 mg/kg po) alone", "setting": "[1]; [5]", "result": "tended to increase"}, {"measurement": "locomotor On-Time compared to the single treatments", "setting": "[1]; [5]", "result": "slightly greater than that seen after L-DOPA alone and bifeprunox"}, {"measurement": "locomotor activity compared to baseline", "setting": "[1]; [5]", "result": "increased"}, {"measurement": "median duration of activity (locomotor On-Time)", "setting": "[1]; [5]", "result": 390, "unit": "min/420 min"}, {"measurement": "locomotor activity compared to vehicle administration", "setting": "[1]; bifeprunox 4 mg/kg po alone", "result": "increased"}, {"measurement": "median duration of activity (locomotor On-Time)", "setting": "[1]; bifeprunox 4 mg/kg po alone", "result": 240, "unit": "min/420 min"}, {"measurement": "Total locomotor activity and locomotor 'On-Time' versus vehicle", "setting": "[1]; [6]", "result": "greater than in vehicle-treated animals"}, {"measurement": "Total locomotor activity and duration of activity (On-time) compared to bifeprunox (8 mg/kg po) alone and L-DOPA plus carbidopa alone", "setting": "[1]; [7]", "result": "not different"}, {"measurement": "locomotor On-Time compared to bifeprunox alone", "setting": "[1]; [7]", "result": "slightly shorter than bifeprunox alone"}, {"measurement": "locomotor activity compared to baseline", "setting": "[1]; [7]", "result": "increased"}, {"measurement": "median duration of activity (locomotor On-Time)", "setting": "[1]; [7]", "result": 300, "unit": "min/420 min"}, {"measurement": "locomotor activity compared to vehicle administration", "setting": "[1]; bifeprunox 8 mg/kg po alone", "result": "increased"}, {"measurement": "median duration of activity (locomotor On-Time)", "setting": "[1]; bifeprunox 8 mg/kg po alone", "result": 345, "unit": "min/420 min"}, {"measurement": "Total locomotor activity versus vehicle", "setting": "[1]; [8]", "result": "greater than vehicle-treated animals"}, {"measurement": "total locomotor activity and locomotor 'On-Time' compared to L-DOPA alone", "setting": "[1]; bifeprunox 4 or 8 mg/kg po given in combination with L-DOPA", "result": "tended to increase"}, {"measurement": "duration of activity ('on'-time) following L-DOPA", "setting": "[1]; co-administration with L-DOPA", "result": "increased"}, {"measurement": "peak locomotor activity as observed after L-DOPA alone", "setting": "[1]; combined treatment with L-DOPA, hyperactivity was not observed", "result": "reduced"}, {"measurement": "functional activity at serotonin 5-HT1A receptors", "setting": "[3]", "result": "partial agonist; also recorded: full agonism"}, {"measurement": "Duration of activity (disability On-Time)", "setting": "[2]; [5]", "result": 360, "unit": "min/420 min"}, {"measurement": "Duration of activity (disability On-Time) compared to bifeprunox alone", "setting": "[2]; [5]", "result": "tended to increase"}, {"measurement": "disability scores over the period of the study", "setting": "[2]; [5]", "result": "decreased"}, {"measurement": "Median duration of activity (disability On-Time)", "setting": "[2]; bifeprunox 4 mg/kg po alone", "result": 210, "unit": "min/420 min"}, {"measurement": "disability scores compared to vehicle administration", "setting": "[2]; [6]", "result": "decreased"}, {"measurement": "Duration of activity (disability On-Time)", "setting": "[2]; [7]", "result": 165, "unit": "min/420 min"}, {"measurement": "Duration of activity (disability On-Time) compared to bifeprunox (8 mg/kg po) alone or L-DOPA plus carbidopa", "setting": "[2]; [7]", "result": "not different"}, {"measurement": "disability scores", "setting": "[2]; [7]", "result": "decreased"}, {"measurement": "Duration of activity (disability On-Time)", "setting": "[2]; bifeprunox 8 mg/kg po alone", "result": 225, "unit": "min/420 min"}, {"measurement": "Total decrease in disability versus vehicle", "setting": "[2]; bifeprunox 8 mg/kg po alone", "result": "lower than vehicle-treated animals"}, {"measurement": "disability scores compared to vehicle treatment", "setting": "[2]; [8]", "result": "decreased"}, {"measurement": "functional activity at dopamine D2/3 receptors", "setting": "dopamine D2/3 receptors", "result": "partial agonist"}]}
